Where two headings read alike, the source gives them in different places.
What was measured:
[1] = target: human recombinant butyrylcholinesterase (Homo sapiens (Human), UniProt P06276); assay: biochemical; assay type: biochemical
[2] = target: Human recombinant acetylcholinesterase (Homo sapiens (Human), UniProt P22303); assay: biochemical
Male Wistar rats = assay type: in vivo; details: rat

Sequence of human recombinant butyrylcholinesterase (P06276 29-602 limits assumed): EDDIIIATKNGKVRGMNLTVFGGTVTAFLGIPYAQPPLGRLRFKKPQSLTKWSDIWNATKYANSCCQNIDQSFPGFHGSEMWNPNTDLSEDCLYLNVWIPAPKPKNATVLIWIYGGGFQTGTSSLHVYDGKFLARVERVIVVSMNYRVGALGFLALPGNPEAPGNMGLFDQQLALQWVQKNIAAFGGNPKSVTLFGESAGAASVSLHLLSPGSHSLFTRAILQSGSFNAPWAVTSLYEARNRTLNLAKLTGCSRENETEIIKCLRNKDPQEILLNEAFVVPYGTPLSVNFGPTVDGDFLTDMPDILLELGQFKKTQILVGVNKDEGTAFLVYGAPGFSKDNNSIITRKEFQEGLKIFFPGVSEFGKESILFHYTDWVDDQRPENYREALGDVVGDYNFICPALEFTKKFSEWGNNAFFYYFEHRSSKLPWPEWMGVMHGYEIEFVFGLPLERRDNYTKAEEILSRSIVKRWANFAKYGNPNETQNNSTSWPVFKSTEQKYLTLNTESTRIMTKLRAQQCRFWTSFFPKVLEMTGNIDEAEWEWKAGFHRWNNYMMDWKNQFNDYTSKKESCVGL
Sequence of Human recombinant acetylcholinesterase (P22303 32-614 limits assumed): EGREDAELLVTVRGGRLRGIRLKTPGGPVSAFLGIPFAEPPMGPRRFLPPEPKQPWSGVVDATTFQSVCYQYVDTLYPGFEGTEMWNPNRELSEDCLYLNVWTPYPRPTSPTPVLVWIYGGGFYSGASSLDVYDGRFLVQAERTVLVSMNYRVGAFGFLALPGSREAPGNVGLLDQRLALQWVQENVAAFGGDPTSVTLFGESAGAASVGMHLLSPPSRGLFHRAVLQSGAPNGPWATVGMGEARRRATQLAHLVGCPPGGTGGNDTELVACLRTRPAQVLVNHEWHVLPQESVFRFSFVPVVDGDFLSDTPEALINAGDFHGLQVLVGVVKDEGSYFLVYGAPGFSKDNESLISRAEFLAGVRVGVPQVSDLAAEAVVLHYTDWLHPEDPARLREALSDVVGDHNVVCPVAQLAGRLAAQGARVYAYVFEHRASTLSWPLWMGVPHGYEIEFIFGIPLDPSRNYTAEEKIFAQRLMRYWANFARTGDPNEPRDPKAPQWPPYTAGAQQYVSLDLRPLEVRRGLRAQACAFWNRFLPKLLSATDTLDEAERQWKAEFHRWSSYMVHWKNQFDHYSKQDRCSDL

Row | Compound | IC50 [1] [µM] | IC50 [2] [µM] | BCHE inhibitory potential in comparison to the current drugs (galantamine, rivastigmine, donepezil) [1] | Reverse (%) (percentage antagonism of scopolamine-induced latency deficit) (Male Wistar rats; in vivo) | further results
1 | COc1cc(C(C)N(C)C)c2c(c1)oc(=O)c1ccccc12 (racemic) [FAR-01-1, (±)-1-(1-(dimethylamino)ethyl)-3-methoxy-6H-benzo[c]chromen-6-one] | 24.7 | – | – | – | –
2 | CCN(C)C(=O)Oc1cc(C(C)N(C)C)c2c(c1)oc(=O)c1ccccc12 (racemic) [FAR-01-1CA, (±)-1-(1-(dimethylamino)ethyl)-6-oxo-6H-benzo[c]chromen-3-yl ethyl(methyl)carbamate] | 8.5 | > 40 | at least comparable and/or better inhibitory potential | – | selectivity BCHE versus ACHE [1]: possess selectivity to inhibit the BCHE
3 | CC(c1cc(O)cc2oc(=O)c3ccccc3c12)N(C)C (racemic) [FAR-01-1OH, (±)-1-(1-(dimethylamino)ethyl)-3-hydroxy-6H-benzo[c]chromen-6-one] | > 40 | 33.1 | – | – | –
4 | COc1cc(C(C)N(C)C)cc2oc(=O)c3ccccc3c12 (racemic) [FAR-01-2, (±)-3-(1-(dimethylamino)ethyl)-1-methoxy-6H-benzo[c]chromen-6-one] | 21.1 | 2.8 | – | 71 | –
5 | CCN(C)C(=O)Oc1cc(C(C)N(C)C)cc2oc(=O)c3ccccc3c12 (racemic) [FAR-01-2CA, (±)-3-(1-(dimethylamino)ethyl)-6-oxo-6H-benzo[c]chromen-1-yl ethyl(methyl)carbamate] | 12.7 | – | at least comparable and/or better inhibitory potential | – | Reverse (%) (percentage antagonism of scopolamine-induced latency deficit) (Male Wistar rats; compound 1 mg/kg oral, scopolamine 1 mg/kg i.p., latency measured for 5 minutes): 53%
6 | CC(c1cc(O)c2c(c1)oc(=O)c1ccccc12)N(C)C (racemic) [FAR-01-2OH, (±)-3-(1-(dimethylamino)ethyl)-1-hydroxy-6H-benzo[c]chromen-6-one] | 4.2 | 18.9 | at least comparable and/or better inhibitory potential | 49 | –
7 | CC(c1ccc2c(c1)oc(=O)c1ccccc12)N(C)C (racemic) [FAR-02-2RS, (±)-3-(1-(dimethylamino)ethyl)-6H-benzo[c]chromen-6-one] | 17.9 | 10.9 | – | 70 | –
8 | COc1cc2c(cc1OC)C(=O)C(CC1CCN(Cc3ccccc3)CC1)C2 (stereo not shown) [Donepezil, reference compound] | – | – | – | 52 | –
9 | C[C@@H](c1ccc2c(c1)oc(=O)c1ccccc12)N(C)C [FAR-02-2S, (S)-3-(1-(dimethylamino)ethyl)-6H-benzo[c]chromen-6-one] | – | – | – | 71 | IC50 ([2]; read-out: ACHE Inhibitory Activity IC50): 7.9 µM; IC50 ([1]; read-out: BCHE Inhibitory Activity IC50): 16.2 µM
10 | CCN(C)C(=O)Oc1cccc([C@H](C)N(C)C)c1 [Rivastigmine, reference compound] | – | – | – | 85 | –

— patent US9586925B2 (priority 2013, dated 2017)
